Reference: US20030171276A1, “Preventives and remedies for chronic hepatitis” (priority 1999, published 2003)

Test system: recombinant E2 protein binding to CD81 expressed in Jurkat cells
Experiment: Inhibition of binding of recombinant E2 protein to Jurkat cells (FACScan)
Assay type: cell-based, HCV
Settings: 1 μg recombinant E2 protein preincubated with 10 μL of 1 mg/mL solution, room temperature 1 hour; FIG. 14
Procedure: An oligopeptide capable of binding to HCV E2 antigen is reacted with the HCV E2 antigen to study whether or not binding of CD81 expressed in Jurkat cells purchased from DAINIPPON PHARMACEUTICAL CO., LTD. to the HCV E2 antigen is inhibited. By the study, whether or not the selected oligopeptide inhibits adhesion of the HCV E2 antigen to CD81-positive cells can be estimated. The inhibitory activity for adhesion of CD81 to the IICV E2 antigen was assayed in accordance with the literature. The concrete description will be given hereinbelow.
The Jurkat cells were prepared in the same manner as in item (1), and suspended in WB so as to have a concentration of 4×10^6 cells/mL, to give a Jurkat cell suspension. […]
Hereinafter, in the same manner as in the item (1) above, the resulting product was reacted with an FITC-labeled anti-mouse IgG1 antibody, and thereafter the reaction mixture was suspended in 0.2 mL of a 10% neutral buffered formalin solution. As to the resulting product, E2 protein bound to Jurkat cells was analyzed by using FACScan.
One microgram of the recombinant E2 protein, and 10 μL of the TAPA148, bLF or bLF443 solution obtained in item (4) above were added to a 6 mm rounded-bottom tube and, and WB was then added thereto, to give 50 μL of a mixture. […] As to the resulting suspension, E2 protein bound to Jurkat cells was analyzed by using FACScan.

| Substance | inhibitory action of binding of E2 protein to Jurkat cells |
| --- | --- |
| TAPA148: Human CD81-derived peptide, SEQ ID NO: 23 (TFHETLDCCGSSTLTALTTSVLKNNLCPSGSNIISNLFKTDCHQKIDDLTSGK; Synthesized peptide TAPA148 which is derived from human CD81) | inhibitory action of binding of E2 protein |
| bLF443: Bovine lactoferrin-derived peptide, SEQ ID NO: 24 (LDCVLRPTEGYLAVAVVKKANEGLTWNSLKDKKSCH; Synthesized peptide bLF443 which is derived from bovine lactoferrin) | inhibitory action of binding of the E2 protein |
